Values after ≈ are worked out from the molar mass of the structure shown.
How the values were obtained:
Assay type in all cases: cell-based
[1] = test system: Aspergillus brasiliensis; test: MIC and Kull synergy index of 1,2-/2,3-alkanediol mixtures; conditions: single 2,3-alkanediol, read-out: MIC Component B
[2] = test system: Corynebacterium jeikeium; test: MIC test (growth inhibition, 96 well plates, OD); conditions: read-out: Minimum Inhibitory Concentration (MIC)
[3] = test system: Propionibacterium acnes; test: MIC test (growth inhibition, 96 well plates, OD); conditions: Cutibacterium acnes; read-out: Minimum Inhibitory Concentration (MIC)
[4] = test system: Candida albicans; test: MIC test (growth inhibition, 96 well plates, OD); conditions: read-out: Minimum Inhibitory Concentration (MIC)
[5] = test system: Staphylococcus hominis; test: MIC test (growth inhibition, 96 well plates, OD); conditions: read-out: Minimum Inhibitory Concentration (MIC)
[6] = test system: Staphylococcus aureus; test: MIC test (growth inhibition, 96 well plates, OD); conditions: read-out: Minimum Inhibitory Concentration (MIC)
[7] = test system: Escherichia coli; test: MIC test (growth inhibition, 96 well plates, OD); conditions: read-out: Minimum Inhibitory Concentration (MIC)
[8] = test system: Staphylococcus aureus (SA); test: Preservation efficacy test (PET), European Pharmacopoeia 5.1.3
In short: (§1)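 Preparations challenged with prescribed inoculums per European Pharmacopoeia 5.1.3, counting microorganisms after the prescribed time. Adequate preservation means a significant fall or no increase in counts.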

[9] = test system: Aspergillus brasiliensis (AB); test: as above
In short: as §1

[10] = test system: Escherichia coli (EC); test: as above
In short: as §1

[11] = test system: Candida albicans (CA); test: as above
In short: as §1

[12] = test system: Pseudomonas aeruginosa (PA); test: as above
In short: as §1

With `CCCCC(O)C(C)O` (stereo not drawn) [2,3-heptanediol] the MIC [1] was 7500 µg/mL, the MIC [2] was greater than 5000 µg/mL and the MIC [3] was greater than 5000 µg/mL. It also gave an MIC [4] greater than 5000 µg/mL, an MIC [5] greater than 5000 µg/mL and an MIC [6] of 20000 µg/mL (≈ 151 mM). The MIC [7] was greater than 5000 µg/mL, the “number of microorganisms after 2 days” value ([8]; 0.1% in shampoo) was 27,000 and the “number of microorganisms after 7 days” value ([8]; 0.1% in shampoo) was 490. The “number of microorganisms after 14 days” value ([8]; 0.1% in shampoo) was 1, the “number of microorganisms after 28 days” value ([8]; 0.1% in shampoo) was 1 and the “number of microorganisms after 2 days” value ([8]; 0.2% in o/w emulsion) was 1,300,000. For the same compound, the “number of microorganisms after 7 days” value ([8]; 0.2% in o/w emulsion) was 790,000, the “number of microorganisms after 14 days” value ([8]; 0.2% in o/w emulsion) was 55 and the “number of microorganisms after 28 days” value ([8]; 0.2% in o/w emulsion) was 1. For the same compound, the “number of microorganisms after 2 days” value ([8]; 0.4% in o/w emulsion) was 1,000,000, the “number of microorganisms after 7 days” value ([8]; 0.4% in o/w emulsion) was 12,000 and the “number of microorganisms after 14 days” value ([8]; 0.4% in o/w emulsion) was 1. For the same compound, the “number of microorganisms after 28 days” value ([8]; 0.4% in o/w emulsion) was 1, the “number of microorganisms after 2 days” value ([8]; 0.4% in shampoo) was 3,500 and the “number of microorganisms after 7 days” value ([8]; 0.4% in shampoo) was 1. The “number of microorganisms after 14 days” value ([8]; 0.4% in shampoo) was 1, the “number of microorganisms after 28 days” value ([8]; 0.4% in shampoo) was 1 and the “number of microorganisms after 2 days” value ([9]; 0.1% in shampoo) was 1,600,000. The “number of microorganisms after 7 days” value ([9]; 0.1% in shampoo) was 970,000, the “number of microorganisms after 14 days” value ([9]; 0.1% in shampoo) was 110,000 and the “number of microorganisms after 28 days” value ([9]; 0.1% in shampoo) was 120,000. The “number of microorganisms after 2 days” value ([9]; 0.2% in o/w emulsion) was 1,600,000, the “number of microorganisms after 7 days” value ([9]; 0.2% in o/w emulsion) was 1,600,000 and the “number of microorganisms after 14 days” value ([9]; 0.2% in o/w emulsion) was 3,000,000. The “number of microorganisms after 28 days” value ([9]; 0.2% in o/w emulsion) was 2,000,000, the “number of microorganisms after 2 days” value ([9]; 0.4% in o/w emulsion) was 790,000 and the “number of microorganisms after 7 days” value ([9]; 0.4% in o/w emulsion) was 930,000. The “number of microorganisms after 14 days” value ([9]; 0.4% in o/w emulsion) was 500,000, the “number of microorganisms after 28 days” value ([9]; 0.4% in o/w emulsion) was 390,000 and the “number of microorganisms after 2 days” value ([9]; 0.4% in shampoo) was 2,200,000. The “number of microorganisms after 7 days” value ([9]; 0.4% in shampoo) was 350,000, the “number of microorganisms after 14 days” value ([9]; 0.4% in shampoo) was 130,000 and the “number of microorganisms after 28 days” value ([9]; 0.4% in shampoo) was 140,000. For the same compound, the “number of microorganisms after 2 days” value ([10]; 0.1% in shampoo) was 1,100,000, the “number of microorganisms after 7 days” value ([10]; 0.1% in shampoo) was 1,500,000 and the “number of microorganisms after 14 days” value ([10]; 0.1% in shampoo) was 1,600,000. For the same compound, the “number of microorganisms after 28 days” value ([10]; 0.1% in shampoo) was 1,400,000, the “number of microorganisms after 2 days” value ([10]; 0.2% in o/w emulsion) was 170,000 and the “number of microorganisms after 7 days” value ([10]; 0.2% in o/w emulsion) was 1,600. The “number of microorganisms after 14 days” value ([10]; 0.2% in o/w emulsion) was 82, the “number of microorganisms after 28 days” value ([10]; 0.2% in o/w emulsion) was 1 and the “number of microorganisms after 2 days” value ([10]; 0.4% in o/w emulsion) was 320,000. For the same compound, the “number of microorganisms after 7 days” value ([10]; 0.4% in o/w emulsion) was 2,400, the “number of microorganisms after 14 days” value ([10]; 0.4% in o/w emulsion) was 1 and the “number of microorganisms after 28 days” value ([10]; 0.4% in o/w emulsion) was 1. For the same compound, the “number of microorganisms after 2 days” value ([10]; 0.4% in shampoo) was 1,200,000, the “number of microorganisms after 7 days” value ([10]; 0.4% in shampoo) was 100,000 and the “number of microorganisms after 14 days” value ([10]; 0.4% in shampoo) was 75,000. The “number of microorganisms after 28 days” value ([10]; 0.4% in shampoo) was 380,000, the “number of microorganisms after 2 days” value ([11]; 0.1% in shampoo) was 110,000 and the “number of microorganisms after 7 days” value ([11]; 0.1% in shampoo) was 20,000. The “number of microorganisms after 14 days” value ([11]; 0.1% in shampoo) was 100, the “number of microorganisms after 28 days” value ([11]; 0.1% in shampoo) was 1 and the “number of microorganisms after 2 days” value ([11]; 0.2% in o/w emulsion) was 1,900,000. The “number of microorganisms after 7 days” value ([11]; 0.2% in o/w emulsion) was 2,200,000, the “number of microorganisms after 14 days” value ([11]; 0.2% in o/w emulsion) was 2,100,000 and the “number of microorganisms after 28 days” value ([11]; 0.2% in o/w emulsion) was 370,000. For the same compound, the “number of microorganisms after 2 days” value ([11]; 0.4% in o/w emulsion) was 640,000, the “number of microorganisms after 7 days” value ([11]; 0.4% in o/w emulsion) was 350,000 and the “number of microorganisms after 14 days” value ([11]; 0.4% in o/w emulsion) was 130,000. The “number of microorganisms after 28 days” value ([11]; 0.4% in o/w emulsion) was 11,000, the “number of microorganisms after 2 days” value ([11]; 0.4% in shampoo) was 81 and the “number of microorganisms after 7 days” value ([11]; 0.4% in shampoo) was 1. The “number of microorganisms after 14 days” value ([11]; 0.4% in shampoo) was 1, the “number of microorganisms after 28 days” value ([11]; 0.4% in shampoo) was 1 and the “number of microorganisms after 2 days” value ([12]; 0.1% in shampoo) was 230,000. For the same compound, the “number of microorganisms after 7 days” value ([12]; 0.1% in shampoo) was 730,000, the “number of microorganisms after 14 days” value ([12]; 0.1% in shampoo) was 3,500,000 and the “number of microorganisms after 28 days” value ([12]; 0.1% in shampoo) was 7,000,000. The “number of microorganisms after 2 days” value ([12]; 0.2% in o/w emulsion) was 1, the “number of microorganisms after 7 days” value ([12]; 0.2% in o/w emulsion) was 1 and the “number of microorganisms after 14 days” value ([12]; 0.2% in o/w emulsion) was 1. The “number of microorganisms after 28 days” value ([12]; 0.2% in o/w emulsion) was 1, the “number of microorganisms after 2 days” value ([12]; 0.4% in o/w emulsion) was 1 and the “number of microorganisms after 7 days” value ([12]; 0.4% in o/w emulsion) was 1. For the same compound, the “number of microorganisms after 14 days” value ([12]; 0.4% in o/w emulsion) was 1, the “number of microorganisms after 28 days” value ([12]; 0.4% in o/w emulsion) was 1 and the “number of microorganisms after 2 days” value ([12]; 0.4% in shampoo) was 2,900. The “number of microorganisms after 7 days” value ([12]; 0.4% in shampoo) was 1, the “number of microorganisms after 14 days” value ([12]; 0.4% in shampoo) was 1 and the “number of microorganisms after 28 days” value ([12]; 0.4% in shampoo) was 1.

From patent US20230248626A1, “Compositions Comprising (Bio)-Alkanediols” (Symrise AG, priority 0001, published 2023)
